# Test results from patent US20230295200A1 (REGENTS OF THE UNIVERSITY OF MICHIGAN, priority 2022, published 2023).
# Target: T1, STAT5A (Homo sapiens, UniProt P42229)
# T1 sequence (P42229 1-794): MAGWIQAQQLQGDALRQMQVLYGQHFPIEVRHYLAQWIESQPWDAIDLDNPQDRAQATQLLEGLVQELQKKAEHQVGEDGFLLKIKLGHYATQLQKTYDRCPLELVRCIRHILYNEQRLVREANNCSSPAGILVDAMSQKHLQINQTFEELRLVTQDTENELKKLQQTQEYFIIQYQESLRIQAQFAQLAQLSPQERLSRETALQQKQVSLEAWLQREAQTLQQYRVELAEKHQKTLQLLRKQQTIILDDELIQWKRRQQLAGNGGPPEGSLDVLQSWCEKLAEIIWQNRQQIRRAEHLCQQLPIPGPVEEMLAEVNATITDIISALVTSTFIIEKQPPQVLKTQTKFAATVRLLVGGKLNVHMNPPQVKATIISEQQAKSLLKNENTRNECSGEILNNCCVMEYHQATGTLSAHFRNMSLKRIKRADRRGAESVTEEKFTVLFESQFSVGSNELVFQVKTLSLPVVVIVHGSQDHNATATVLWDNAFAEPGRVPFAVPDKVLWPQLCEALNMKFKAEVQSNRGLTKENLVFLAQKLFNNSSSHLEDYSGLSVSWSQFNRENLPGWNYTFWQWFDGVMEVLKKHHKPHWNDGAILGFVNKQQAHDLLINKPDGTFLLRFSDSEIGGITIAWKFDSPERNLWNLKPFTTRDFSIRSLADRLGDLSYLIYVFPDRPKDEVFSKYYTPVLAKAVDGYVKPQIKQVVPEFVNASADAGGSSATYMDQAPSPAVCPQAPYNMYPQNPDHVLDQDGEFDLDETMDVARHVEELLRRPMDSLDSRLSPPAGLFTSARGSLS
# Test: Fluorescence polarization (FP) binding assay, STAT5A
# Settings: FP competition, 5 nM fluorescein-labeled tracer, 200 nM protein, PBS pH7.4
# Procedure: Evaluation of the activity of the inhibitors may be accomplished by fluorescence polarization (FP) experiments. A representative general protocol is the following:
# Fluorescence polarization (FP) experiments are performed in black round-bottom plates using the CLARIOstar microplate reader. To each well, fluorescein-labeled tracer and STAT5 or STAT6 protein are added in assay buffer. […] The inhibition constants are determined as the concentration of the STAT5 or STAT6 at which 50% of the ligand is bound.
# Fluorescence polarization (FP) experiments were performed in 96-well, black round-bottom plates (Microfluor 2, Fisher Scientific) using the CLARIOstar microplate reader (BMG Labtech). To each well, 5 nM of fluoresceinlabeled tracer and 200 nM of STAT5 and/or STAT6 protein were added to a final volume of 100 μl in the assay buffer (PBS pH7.4+0.01% BGG+0.01% Tween-20, 2 mM DTT). The plate was mixed on a shaker for 15 m and incubated at room temperature for 1 h to reach equilibrium. […] All experimental data were analyzed using Prism 8.0 software (GraphPad Software), and the inhibition constants were determined by nonlinear curve fitting as the concentration of the STAT5 and/or STAT6 at which 50% of the ligand is bound.
row,Ki [µM],SMILES
1,1 to 10,"CC(C)(C)[C@H](NC(=O)c1cc2cc(C(F)(F)P(=O)(O)O)ccc2s1)C(=O)N1CCC[C@H]1C(=O)Nc1ncc(-c2ccc(F)cc2)s1 [Compound 261, (difluoro(2-(((S)-1-((S)-2-((5-(4-fluorophenyl)thiazol-2-yl)carbamoyl)pyrrolidin-1-yl)-3,3-dimethyl-1-oxobutan-2-yl)carbamoyl)benzo[b]thiophen-5-yl)methyl)phosphonic acid]"
2,> 10,"CC(C)(C)[C@H](NC(=O)c1cc2cc(C(F)(F)P(=O)(O)O)ccc2s1)C(=O)N1CCC[C@H]1C(=O)Nc1ncc(CO)s1 [Compound 248, (difluoro(2-(((S)-1-((S)-2-((5-(hydroxymethyl)thiazol-2-yl)carbamoyl)pyrrolidin-1-yl)-3,3-dimethyl-1-oxobutan-2-yl)carbamoyl)benzo[b]thiophen-5-yl)methyl)phosphonic acid]"
3,1 to 10,"Cc1cccc(-c2cnc(NC(=O)[C@@H]3CCCN3C(=O)[C@@H](NC(=O)c3cc4cc(C(F)(F)P(=O)(O)O)ccc4s3)C(C)(C)C)s2)c1 [Compound 257, ((2-(((S)-3,3-dimethyl-1-oxo-1-((S)-2-((5-(m-tolyl)thiazol-2-yl)carbamoyl)pyrrolidin-1-yl)butan-2-yl)carbamoyl)benzo[b]thiophen-5-yl)difluoromethyl)phosphonic acid]"
4,> 10,"CC(C)c1cnc(NC(=O)[C@@H]2CCCN2C(=O)[C@@H](NC(=O)c2cc3cc(C(F)(F)P(=O)(O)O)ccc3s2)C(C)(C)C)s1 [Compound 251, (difluoro(2-(((S)-1-((S)-2-((5-isopropylthiazol-2-yl)carbamoyl)pyrrolidin-1-yl)-3,3-dimethyl-1-oxobutan-2-yl)carbamoyl)benzo[b]thiophen-5-yl)methyl)phosphonic acid]"
5,1 to 10,"CC(C)(C)[C@H](NC(=O)c1cc2cc(C(F)(F)P(=O)(O)O)ccc2s1)C(=O)N1CCC[C@H]1C(=O)Nc1nccs1 [Compound 247, ((2-(((S)-3,3-dimethyl-1-oxo-1-((S)-2-(thiazol-2-ylcarbamoyl)pyrrolidin-1-yl)butan-2-yl)carbamoyl)benzo[b]thiophen-5-yl)difluoromethyl)phosphonic acid]"
6,1 to 10,"CC(C)(C)[C@H](NC(=O)c1cc2cc(C(F)(F)P(=O)(O)O)ccc2s1)C(=O)N1CCC[C@H]1C(=O)Nc1ncc(-c2ccccc2F)s1 [Compound 259, (difluoro(2-(((S)-1-((S)-2-((5-(2-fluorophenyl)thiazol-2-yl)carbamoyl)pyrrolidin-1-yl)-3,3-dimethyl-1-oxobutan-2-yl)carbamoyl)benzo[b]thiophen-5-yl)methyl)phosphonic acid]"
7,1 to 10,"CN(C(=O)[C@@H]1CCCCCN1C(=O)[C@@H](NC(=O)c1cc2cc(C(F)(F)P(=O)(O)O)ccc2s1)C(C)(C)C)c1ncc(-c2ccccc2)s1 [Compound 303, ((2-(((S)-3,3-dimethyl-1-((S)-2-(methyl(5-phenylthiazol-2-yl)carbamoyl)azepan-1-yl)-1-oxobutan-2-yl)carbamoyl)benzo[b]thiophen-5-yl)difluoromethyl)phosphonic acid]"
8,0.1 to 1,"CN(C)C(=O)CCN(C(=O)[C@@H]1CCCN1C(=O)[C@H](CCc1ccccc1)NC(=O)c1cc2cc(C(F)(F)P(=O)(O)O)ccc2s1)c1ccc(-c2nccs2)cc1 [Compound 328, ((2-(((S)-1-((S)-2-((3-(dimethylamino)-3-oxopropyl)(4-(thiazol-2-yl)phenyl)carbamoyl)pyrrolidin-1-yl)-1-oxo-4-phenylbutan-2-yl)carbamoyl)benzo[b]thiophen-5-yl)difluoromethyl)phosphonic acid]"
9,1 to 10,"CN(C)C(=O)CCN(C(=O)[C@@H]1CCCN1C(=O)[C@@H](NC(=O)c1cc2cc(C(F)(F)P(=O)(O)O)ccc2s1)c1ccccc1)c1ccc(-c2nccs2)cc1 [Compound 324, ((2-(((S)-2-((S)-2-((3-(dimethylamino)-3-oxopropyl)(4-(thiazol-2-yl)phenyl)carbamoyl)pyrrolidin-1-yl)-2-oxo-1-phenylethyl)carbamoyl)benzo[b]thiophen-5-yl)difluoromethyl)phosphonic acid]"
10,> 10,"CC(C)(C)[C@H](NC(=O)c1cc2cc(C(F)(F)P(=O)(O)O)ccc2s1)C(=O)N1CCC[C@H]1C(=O)Nc1ncc(-c2cc3ccccc3[nH]2)s1 [Compound 250, ((2-(((S)-1-((S)-2-((5-(1H-indol-2-yl)thiazol-2-yl)carbamoyl)pyrrolidin-1-yl)-3,3-dimethyl-1-oxobutan-2-yl)carbamoyl)benzo[b]thiophen-5-yl)difluoromethyl)phosphonic acid]"
11,> 10,"CC(C)(C)c1cnc(NC(=O)[C@@H]2CCCN2C(=O)[C@@H](NC(=O)c2cc3cc(C(F)(F)P(=O)(O)O)ccc3s2)C(C)(C)C)s1 [Compound 252, ((2-(((S)-1-((S)-2-((5-(tert-butyl)thiazol-2-yl)carbamoyl)pyrrolidin-1-yl)-3,3-dimethyl-1-oxobutan-2-yl)carbamoyl)benzo[b]thiophen-5-yl)difluoromethyl)phosphonic acid]"
12,1 to 10,"CN(C)C(=O)CCN(C(=O)[C@@H]1CCCN1C(=O)[C@@H](NC(=O)c1cc2cc(C(F)(F)P(=O)(O)O)ccc2s1)C1CCCCC1)c1ccc(-c2nccs2)cc1 [Compound 323, ((2-(((S)-1-cyclohexyl-2-((S)-2-((3-(dimethylamino)-3-oxopropyl)(4-(thiazol-2-yl)phenyl)carbamoyl)pyrrolidin-1-yl)-2-oxoethyl)carbamoyl)benzo[b]thiophen-5-yl)difluoromethyl)phosphonic acid]"
13,1 to 10,"CCN(C(=O)[C@@H]1CCCCCN1C(=O)[C@@H](NC(=O)c1cc2cc(C(F)(F)P(=O)(O)O)ccc2s1)C(C)(C)C)c1ncc(-c2ccccc2)s1 [Compound 304, ((2-(((S)-1-((S)-2-(ethyl(5-phenylthiazol-2-yl)carbamoyl)azepan-1-yl)-3,3-dimethyl-1-oxobutan-2-yl)carbamoyl)benzo[b]thiophen-5-yl)difluoromethyl)phosphonic acid]"
14,> 10,"Cc1ccc(-c2cnc(NC(=O)[C@@H]3CCCN3C(=O)[C@@H](NC(=O)c3cc4cc(C(F)(F)P(=O)(O)O)ccc4s3)C(C)(C)C)s2)cc1 [Compound 258, ((2-(((S)-3,3-dimethyl-1-oxo-1-((S)-2-((5-(p-tolyl)thiazol-2-yl)carbamoyl)pyrrolidin-1-yl)butan-2-yl)carbamoyl)benzo[b]thiophen-5-yl)difluoromethyl)phosphonic acid]"
15,1 to 10,"CC(C)(C)[C@H](NC(=O)c1cc2cc(C(F)(F)P(=O)(O)O)ccc2s1)C(=O)N1CCC[C@H]1C(=O)Nc1ncc(-c2cccc(Cl)c2)s1 [Compound 262, ((2-(((S)-1-((S)-2-((5-(3-chlorophenyl)thiazol-2-yl)carbamoyl)pyrrolidin-1-yl)-3,3-dimethyl-1-oxobutan-2-yl)carbamoyl)benzo[b]thiophen-5-yl)difluoromethyl)phosphonic acid]"
16,0.1 to 1,"CC(C)(C)[C@H](NC(=O)c1cc2cc(C(F)(F)P(=O)(O)O)ccc2s1)C(=O)N1CCC[C@H]1C(=O)Nc1ncc(-c2cccc(F)c2)s1 [Compound 260, (difluoro(2-(((S)-1-((S)-2-((5-(3-fluorophenyl)thiazol-2-yl)carbamoyl)pyrrolidin-1-yl)-3,3-dimethyl-1-oxobutan-2-yl)carbamoyl)benzo[b]thiophen-5-yl)methyl)phosphonic acid]"
17,0.1 to 1,"CCC(CC)[C@H](NC(=O)c1cc2cc(C(F)(F)P(=O)(O)O)ccc2s1)C(=O)N1CCC[C@H]1C(=O)N(CCC(=O)N(C)C)c1ccc(-c2nccs2)cc1 [Compound 322, ((2-(((S)-1-((S)-2-((3-(dimethylamino)-3-oxopropyl)(4-(thiazol-2-yl)phenyl)carbamoyl)pyrrolidin-1-yl)-3-ethyl-1-oxopentan-2-yl)carbamoyl)benzo[b]thiophen-5-yl)difluoromethyl)phosphonic acid]"
18,1 to 10,"Cc1ccccc1-c1cnc(NC(=O)[C@@H]2CCCN2C(=O)[C@@H](NC(=O)c2cc3cc(C(F)(F)P(=O)(O)O)ccc3s2)C(C)(C)C)s1 [Compound 256, ((2-(((S)-3,3-dimethyl-1-oxo-1-((S)-2-((5-(o-tolyl)thiazol-2-yl)carbamoyl)pyrrolidin-1-yl)butan-2-yl)carbamoyl)benzo[b]thiophen-5-yl)difluoromethyl)phosphonic acid]"
